Common to all, as to type: functional
In experiment [1] the test system is Mus musculus. Put plainly: Antibacterial activity against Escherichia coli (311) infection in mice after single subcutaneous dose, activity expressed as ED50. The conditions noted are these: sc.
In experiment [2] the test system is Mus musculus. The experiment can be described thus: Antibacterial activity against Escherichia coli (311) infection in mice after single oral dose, activity expressed as ED50.
Experiment [3] has as its target T1, Dipeptidase 1 (Sus scrofa) (UniProt P22412).
T1 sequence (whole entry): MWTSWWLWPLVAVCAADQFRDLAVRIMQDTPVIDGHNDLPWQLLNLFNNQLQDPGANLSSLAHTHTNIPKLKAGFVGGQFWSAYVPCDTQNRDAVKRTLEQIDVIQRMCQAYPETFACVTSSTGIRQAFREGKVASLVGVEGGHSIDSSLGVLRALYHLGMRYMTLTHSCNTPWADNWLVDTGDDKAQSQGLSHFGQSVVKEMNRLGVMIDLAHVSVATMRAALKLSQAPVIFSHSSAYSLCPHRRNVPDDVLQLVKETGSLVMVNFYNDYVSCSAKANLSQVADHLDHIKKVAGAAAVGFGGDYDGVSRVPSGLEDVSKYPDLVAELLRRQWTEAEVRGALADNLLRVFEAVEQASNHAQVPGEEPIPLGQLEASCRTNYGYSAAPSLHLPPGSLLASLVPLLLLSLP
The experiment can be described thus: Relative hydrolysis by hog Dehydropeptidase.

The structures appear in SMILES notation. A value given as a limit tells only on which side of the number the result lay.

This note sets out measurements from ChEMBL document CHEMBL1130478, “Mono and bis double ester prodrugs of novel aminomethyl-THF 1-methylcarbapenems” (Bioorg Med Chem Lett, 1997).

The term ED50 denotes the dose at which the effect has come halfway, by size or by number of responders. Read a high ED50 as weaker potency.

On to `C[C@H]1C(SC2COC(CN)C2)=C(C(=O)O)N2C(=O)[C@H]([C@@H](C)O)C12` (stereo partly specified), for which the values for the ED50 in experiment [1] and in experiment [2] were 0.28 mg/kg and 3.5 mg/kg, respectively.

Regarding `CC(OC(=O)OC1=CCCCC1)OC(=O)C1=C(S[C@@H]2CCO[C@@H]2CNC(=O)OCOC(=O)C(C)C)[C@H](C)C2[C@@H]([C@@H](C)O)C(=O)N12` (stereo partly specified), the ED50 in experiment [1] was 1.9 mg/kg; in experiment [2] it was 1.5 mg/kg.

As to `CC(=O)OC(C)OC(=O)NC[C@H]1OCC[C@H]1SC1=C(C(=O)O)N2C(=O)[C@H]([C@@H](C)O)C2[C@H]1C.CCN(C(C)C)C(C)C` (stereo partly specified), the values for the 50% effective dose (ED50) in experiment [1] and in experiment [2] were 0.62 mg/kg and 4.5 mg/kg, respectively.

As to `CC(C)C(=O)OCOC(=O)C1=C(SC2CCOC2CN)[C@H](C)C2[C@@H]([C@@H](C)O)C(=O)N12.CCN(C(C)C)C(C)C` (stereo partly specified), the values for the ED50 in experiment [1] and in experiment [2] were 0.18 mg/kg and 2.3 mg/kg, respectively.

For `CCOC(=O)OC(C)OC(=O)C1=C(S[C@@H]2CCO[C@@H]2CN)[C@H](C)C2[C@@H]([C@@H](C)O)C(=O)N12.Cl` (stereo partly specified), the ED50 worked out at 1.8 mg/kg in experiment [1] and 25 mg/kg in experiment [2].

Take `CC(OC(=O)OC1=CCCCC1)OC(=O)C1=C(S[C@@H]2CCO[C@@H]2CN)[C@H](C)C2[C@@H]([C@@H](C)O)C(=O)N12.Cl` (stereo partly specified): the results for the ED50 in experiment [1] and in experiment [2] were 1.6 mg/kg and greater than 3.2 mg/kg, respectively.

As to `CC(C)OC(=O)OC(C)OC(=O)C1=C(S[C@@H]2CCO[C@@H]2CNC(=O)OCOC(=O)C(C)C)[C@H](C)C2[C@@H]([C@@H](C)O)C(=O)N12` (stereo partly specified), the results for the ED50 in experiment [1] and in experiment [2] were 2.1 mg/kg and 1.4 mg/kg, respectively.

Turning to `CCCC(=O)OCOC(=O)NC[C@H]1OCC[C@H]1SC1=C(C(=O)OCOC(=O)OCC)N2C(=O)[C@H]([C@@H](C)O)C2[C@H]1C` (stereo partly specified), the figures for the ED50 in experiment [1] and in experiment [2] were 0.49 mg/kg and 1.3 mg/kg, respectively.

As to `CCOC(=O)OCOC(=O)C1=C(S[C@@H]2CCO[C@@H]2CNC(=O)OC(C)OC(=O)C(C)C)[C@H](C)C2[C@@H]([C@@H](C)O)C(=O)N12` (stereo partly specified), the ED50 in experiment [1] was found to be 0.45 mg/kg; in experiment [2], 0.72 mg/kg.

In the case of `CCOC(=O)OCOC(=O)NCC1OCCC1SC1=C(C(=O)OCOC(=O)C(C)C)N2C(=O)[C@H]([C@@H](C)O)C2[C@H]1C` (stereo partly specified), the ED50 in experiment [1] was found to be 0.37 mg/kg; in experiment [2], 0.87 mg/kg.

For `CCOC(=O)OCOC(=O)C1=C(S[C@@H]2CCO[C@@H]2CNC(=O)OCOC(=O)c2ccccc2)[C@H](C)C2[C@@H]([C@@H](C)O)C(=O)N12` (stereo partly specified), the ED50 in experiment [1] is 0.54 mg/kg; in experiment [2] it was 0.76 mg/kg.

Take `C[C@@H](O)[C@H]1C(=O)N2C(C(=O)O)=C(SCCNC=N)C[C@H]12` [IMIPENEM ANHYDROUS]: the ED50 was 0.7 mg/kg in experiment [1] and 79 mg/kg in experiment [2].

Turning to `CCN(C(C)C)C(C)C.C[C@H]1C(S[C@@H]2CCO[C@@H]2CNC(=O)OCOC(=O)C(C)(C)C)=C(C(=O)O)N2C(=O)[C@H]([C@@H](C)O)C12` (stereo partly specified), the values for the ED50 in experiment [1] and in experiment [2] were 0.65 mg/kg and 2.9 mg/kg, respectively.

On to `CC(C)C(=O)OCOC(=O)NC[C@H]1OCC[C@H]1SC1=C(C(=O)OCOC(=O)C(C)(C)C)N2C(=O)[C@H]([C@@H](C)O)C2[C@H]1C` (stereo partly specified), for which the ED50 in experiment [1] amounted to 1.9 mg/kg; in experiment [2], 1.6 mg/kg.

For the compound `C[C@H]1C(S[C@@H]2CCO[C@@H]2CNC(=O)OCOC(=O)c2ccccc2)=C(C(=O)[O-])N2C(=O)[C@H]([C@@H](C)O)C12.[Na+]` (stereo partly specified), the ED50 worked out at 0.32 mg/kg in experiment [1] and 2.9 mg/kg in experiment [2].

In turn, `CC(=O)OC(C)OC(=O)NC[C@H]1OCC[C@H]1SC1=C(C(=O)O)N2C(=O)[C@H]([C@@H](C)O)C2[C@H]1C` (stereo partly specified) came in with a Relative hydrolysis in experiment [3] of 6.
